Consider 2 compounds from ChEMBL document CHEMBL1127385, “Synthesis and diuretic activity of alkyl- and arylguanidine analogs of N,N'-dicyclohexyl-4-morpholinecarboxamidine in rats and dogs” (J Med Chem, 1994).

What all share (settings): in vivo, po
The subject of data set [1] is Rattus norvegicus. The experiment in a line: Total electrolytic excretion of sodium in urine of rats after peroral administration of 34.8 uM/Kg of drug. The class given is ADME, organism-based.
The test system of data set [2] is Rattus norvegicus. The experiment in a line: Ratio of Total electrolytic excretion of sodium and potassium in urine of rats after peroral administration of 348 uM/Kg of drug. The class given is ADME, organism-based.
Data set [3] has as its system Rattus norvegicus. The experiment in a line: Ratio of Total electrolytic excretion of sodium and potassium in urine of rats after peroral administration of 105 uM/Kg of drug. In kind it is ADME, organism-based.
The test system of data set [4] is Rattus norvegicus. The data set can be described thus: Total electrolytic excretion of chlorine in urine of rats after peroral administration of 105 uM/Kg of drug. In kind it is ADME, organism-based.
Data set [5] concerns Rattus norvegicus. The experiment in a line: Ratio of Total electrolytic excretion of sodium and potassium in urine of rats after peroral administration of 34.8 uM/Kg of drug. The class given is ADME, organism-based.
Data set [6] relates to Rattus norvegicus. The experiment in a line: Total electrolytic excretion of potassium in urine of rats after peroral administration of 348 uM/Kg of drug. In kind it is ADME, organism-based.
Data set [7] deals with Rattus norvegicus. The experiment in a line: Total electrolytic excretion of chlorine in urine of rats after peroral administration of 348 uM/Kg of drug. In kind it is ADME, organism-based.
Data set [8] concerns Rattus norvegicus. The data set can be described thus: Tested for the diuretic activity by measuring the urinary volume after peroral administering 105 uM/Kg of drug in rats. The class given is ADME, organism-based, Urine.
The subject of data set [9] is Rattus norvegicus. The experiment in a line: Total electrolytic excretion of sodium in urine of rats after peroral administration of 348 uM/Kg of drug. In kind it is ADME, organism-based.
The test system of data set [10] is Rattus norvegicus. The data set can be described thus: Total electrolytic excretion of potassium in urine of rats after peroral administration of 105 uM/Kg of drug. The class given is ADME, organism-based.
For data set [11], the system named is Rattus norvegicus. The experiment in a line: Tested for the diuretic activity by measuring the urinary volume after peroral administering 34.8 uM/Kg of drug in rats. The class given is ADME, organism-based, Urine.
For data set [12], the system named is Rattus norvegicus. The experiment in a line: Total electrolytic excretion of potassium in urine of rats after peroral administration of 34.8 uM/Kg of drug. In kind it is ADME, organism-based.
The subject of data set [13] is Rattus norvegicus. The experiment in a line: Total electrolytic excretion of chlorine in urine of rats after peroral administration of 34.8 uM/Kg of drug. The class given is ADME, organism-based.
Data set [14] deals with Rattus norvegicus. The experiment in a line: Tested for the diuretic activity by measuring the urinary volume after peroral administering 348 uM/Kg of drug in rats. In kind it is ADME, organism-based, Urine.
The subject of data set [15] is Rattus norvegicus. The data set can be described thus: Total electrolytic excretion of sodium in urine of rats after peroral administration of 105 uM/Kg of drug. In kind it is ADME, organism-based.
The test system of data set [16] is Rattus norvegicus. The experiment in a line: Total electrolytic excretion of potassium in urine of rats after peroral administration of 217 uM/Kg of drug. In kind it is ADME, organism-based.
In data set [17] the test system is Rattus norvegicus. The data set can be described thus: Ratio of Total electrolytic excretion of sodium and potassium in urine of rats after peroral administration of 217 uM/Kg of drug. In kind it is ADME, organism-based.
Data set [18] concerns Rattus norvegicus. The data set can be described thus: Ratio of Total electrolytic excretion of sodium and potassium in urine of rats after peroral administration of 21.7 uM/Kg of drug. In kind it is ADME, organism-based.
For data set [19], the system named is Rattus norvegicus. The experiment in a line: Total electrolytic excretion of chlorine in urine of rats after peroral administration of 65.2 uM/Kg of drug. The class given is ADME, organism-based.
Data set [20] concerns Rattus norvegicus. The data set can be described thus: Total electrolytic excretion of sodium in urine of rats after peroral administration of 217 uM/Kg of drug. The class given is ADME, organism-based.
Data set [21] concerns Rattus norvegicus. The experiment in a line: Tested for the diuretic activity by measuring the urinary volume after peroral administering 65.2 uM/Kg of drug in rats. In kind it is ADME, organism-based, Urine.
The subject of data set [22] is Rattus norvegicus. The data set can be described thus: Ratio of Total electrolytic excretion of sodium and potassium in urine of rats after peroral administration of 65.2 uM/Kg of drug. In kind it is ADME, organism-based.
The subject of data set [23] is Rattus norvegicus. The data set can be described thus: Total electrolytic excretion of chlorine in urine of rats after peroral administration of 217 uM/Kg of drug. The class given is ADME, organism-based.
The subject of data set [24] is Rattus norvegicus. The experiment in a line: Total electrolytic excretion of chlorine in urine of rats after peroral administration of 21.7 uM/Kg of drug. The class given is ADME, organism-based.
The subject of data set [25] is Rattus norvegicus. The data set can be described thus: Total electrolytic excretion of potassium in urine of rats after peroral administration of 65.2 uM/Kg of drug. In kind it is ADME, organism-based.
The test system of data set [26] is Rattus norvegicus. The experiment in a line: Total electrolytic excretion of potassium in urine of rats after peroral administration of 21.7 uM/Kg of drug. The class given is ADME, organism-based.
For data set [27], the system named is Rattus norvegicus. The experiment in a line: Total electrolytic excretion of sodium in urine of rats after peroral administration of 65.2 uM/Kg of drug. In kind it is ADME, organism-based.
Data set [28] concerns Rattus norvegicus. The data set can be described thus: Tested for the diuretic activity by measuring the urinary volume after peroral administering 217 uM/Kg of drug in rats. The class given is ADME, organism-based, Urine.
Data set [29] deals with Rattus norvegicus. The experiment in a line: Total electrolytic excretion of sodium in urine of rats after peroral administration of 21.7 uM/Kg of drug. In kind it is ADME, organism-based.
Data set [30] relates to Rattus norvegicus. The experiment in a line: Tested for the diuretic activity by measuring the urinary volume after peroral administering 21.7 uM/Kg of drug in rats. The class given is ADME, organism-based, Urine.

Turning to `c1ccc(N/C(=N/C2CCCCC2)N2CCOCC2)cc1`, the “Excretion Na+” value in data set [1] stood at 0.93 m equiv; in [9], 1.37 m equiv; in [15], 1.02 m equiv. In addition, the Ratio in data set [2] is listed as 3.4; in [3], 2.8; in data set [5], 3.4. The “Excretion Cl-” value was found to be 1.12 m equiv in data set [4], 1.39 m equiv in [7] and 1.04 m equiv in data set [13]. Besides, the “Excretion K+” value came to 0.4 m equiv in data set [6], 0.37 m equiv in data set [10] and 0.27 m equiv in data set [12]. Besides, the V in [8] was determined as 7.3 mL; in data set [11] it was 5.6 mL; in data set [14], 9 mL.
Take `Clc1ccc(CN/C(=N/C2CCCCC2)N2CCOCC2)cc1Cl`: the “Excretion K+” value in [16] came out at 0.15 m equiv; in data set [25] it was 0.26 m equiv; in data set [26], 0.25 m equiv. In addition, the Ratio was 10.9 in data set [17], 3.8 in data set [18] and 5.9 in data set [22]. Moreover, the “Excretion Cl-” value in [19] amounted to 1.44 m equiv; in data set [23], 1.39 m equiv; in data set [24] it was 1.05 m equiv. In addition, the “Excretion Na+” value was determined as 1.59 m equiv in data set [20], 1.55 m equiv in [27] and 0.96 m equiv in data set [29]. Further, the V in [21] was found to be 9.3 mL; in data set [28], 8.7 mL; in data set [30], 6.4 mL.
